Assay results from the supplement of paper PMC10307832.

Experiments:
Assay in all cases: relative viability (nuclei count vs DMSO), 5 days (fraction); higher = more cells survive
201T = tested on: 201T
How it was run: (§1)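 One day after seeding in 1536-well plates, lung cancer cell lines were dosed by pin tool. Dosing was either single-drug or a fixed anchor-drug dose plus five library-drug doses (not always all listed) in √10 steps. After 5 days, nuclei were stained in one fix-and-stain step and counted on 4× images, and relative viability is the nuclei count of treated wells over that of vehicle wells, given as the median of duplicate plates.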

BEN = tested on: BEN
How it was run: as §1

COR-L 105 = tested on: COR-L 105
How it was run: as §1

COR-L23 = tested on: COR-L23
How it was run: as §1

EKVX = tested on: EKVX
How it was run: as §1

HARA = tested on: HARA
How it was run: as §1

HCC-15 = tested on: HCC-15
How it was run: as §1

HCC-366 = tested on: HCC-366
How it was run: as §1

HCC-78 = tested on: HCC-78
How it was run: as §1

HCC-827 = tested on: HCC-827
How it was run: as §1

LC-2-ad = tested on: LC-2-ad
How it was run: as §1

LU99A = tested on: LU99A
How it was run: as §1

LXF-289 = tested on: LXF-289
How it was run: as §1

NCI-H1650 = tested on: NCI-H1650
How it was run: as §1

NCI-H1734 = tested on: NCI-H1734
How it was run: as §1

NCI-H1755 = tested on: NCI-H1755
How it was run: as §1

NCI-H1944 = tested on: NCI-H1944
How it was run: as §1

NCI-H1975 = tested on: NCI-H1975
How it was run: as §1

NCI-H1993 = tested on: NCI-H1993
How it was run: as §1

NCI-H3122 = tested on: NCI-H3122
How it was run: as §1

NCI-H596 = tested on: NCI-H596
How it was run: as §1

RERF-LC-KJ = tested on: RERF-LC-KJ
How it was run: as §1

SK-LU-1 = tested on: SK-LU-1
How it was run: as §1

O=c1[nH]c2ccccc2n1C1CCN(CCCC(c2ccc(F)cc2)c2ccc(F)cc2)CC1 [Pimozide] + CC(=O)Nc1cccc(-n2c(=O)n(C3CC3)c(=O)c3c(Nc4ccc(I)cc4F)n(C)c(=O)c(C)c32)c1 [Trametinib] (partner 0.02 µM)
relative viability (201T; first compound 0.08 µM): 0.717
relative viability (201T; first compound 0.253 µM): 0.726
relative viability (201T; first compound 0.8 µM): 0.7
relative viability (201T; first compound 2.53 µM): 0.732
relative viability (201T; first compound 8 µM): 0.686
relative viability (BEN; first compound 0.08 µM): 1.17
relative viability (BEN; first compound 0.253 µM): 1.16
relative viability (BEN; first compound 0.8 µM): 1.01
relative viability (BEN; first compound 2.53 µM): 0.984
relative viability (BEN; first compound 8 µM): 1.29
relative viability (COR-L 105; first compound 0.08 µM): 0.399
relative viability (COR-L 105; first compound 0.253 µM): 0.418
relative viability (COR-L 105; first compound 0.8 µM): 0.425
relative viability (COR-L 105; first compound 2.53 µM): 0.437
relative viability (COR-L 105; first compound 8 µM): 0.779
relative viability (COR-L23; first compound 0.08 µM): 0.541
relative viability (COR-L23; first compound 0.253 µM): 0.596
relative viability (COR-L23; first compound 0.8 µM): 0.602
relative viability (COR-L23; first compound 2.53 µM): 0.629
relative viability (COR-L23; first compound 8 µM): 0.478
relative viability (EKVX; first compound 0.253 µM): 0.294
relative viability (EKVX; first compound 0.8 µM): 0.31
relative viability (EKVX; first compound 2.53 µM): 0.344
relative viability (EKVX; first compound 8 µM): 0.326
relative viability (HARA; first compound 0.08 µM): 0.612
relative viability (HARA; first compound 0.253 µM): 0.662
relative viability (HARA; first compound 0.8 µM): 0.739
relative viability (HARA; first compound 2.53 µM): 0.458
relative viability (HARA; first compound 8 µM): 0.631
relative viability (HCC-15; first compound 0.08 µM): 0.398
relative viability (HCC-15; first compound 0.253 µM): 0.355
relative viability (HCC-15; first compound 0.8 µM): 0.386
relative viability (HCC-15; first compound 2.53 µM): 0.358
relative viability (HCC-15; first compound 8 µM): 0.34
relative viability (HCC-366; first compound 0.08 µM): 0.32
relative viability (HCC-366; first compound 0.253 µM): 0.282
relative viability (HCC-366; first compound 0.8 µM): 0.361
relative viability (HCC-366; first compound 2.53 µM): 0.298
relative viability (HCC-366; first compound 8 µM): 0.34
relative viability (HCC-78; first compound 0.08 µM): 0.704
relative viability (HCC-78; first compound 0.8 µM): 0.688
relative viability (HCC-78; first compound 2.53 µM): 0.776
relative viability (HCC-78; first compound 8 µM): 0.757
relative viability (HCC-827; first compound 0.253 µM): 0.538
relative viability (HCC-827; first compound 0.8 µM): 0.556
relative viability (HCC-827; first compound 2.53 µM): 0.532
relative viability (HCC-827; first compound 8 µM): 0.561
relative viability (LC-2-ad; first compound 0.08 µM): 0.886
relative viability (LC-2-ad; first compound 0.253 µM): 0.819
relative viability (LC-2-ad; first compound 0.8 µM): 0.893
relative viability (LC-2-ad; first compound 2.53 µM): 0.904
relative viability (LC-2-ad; first compound 8 µM): 0.897
relative viability (LU99A; first compound 0.08 µM): 0.66
relative viability (LU99A; first compound 0.8 µM): 0.522
relative viability (LU99A; first compound 2.53 µM): 0.48
relative viability (LU99A; first compound 8 µM): 0.524
relative viability (LXF-289; first compound 0.08 µM): 0.623
relative viability (LXF-289; first compound 0.253 µM): 0.67
relative viability (LXF-289; first compound 0.8 µM): 0.627
relative viability (LXF-289; first compound 2.53 µM): 0.687
relative viability (LXF-289; first compound 8 µM): 0.674
relative viability (NCI-H1650; first compound 0.08 µM): 0.625
relative viability (NCI-H1650; first compound 0.253 µM): 0.591
relative viability (NCI-H1650; first compound 0.8 µM): 0.516
relative viability (NCI-H1650; first compound 2.53 µM): 0.571
relative viability (NCI-H1650; first compound 8 µM): 0.718
relative viability (NCI-H1734; first compound 0.08 µM): 0.685
relative viability (NCI-H1734; first compound 0.253 µM): 0.697
relative viability (NCI-H1734; first compound 0.8 µM): 0.734
relative viability (NCI-H1734; first compound 2.53 µM): 0.657
relative viability (NCI-H1734; first compound 8 µM): 0.673
relative viability (NCI-H1755; first compound 0.08 µM): 0.748
relative viability (NCI-H1755; first compound 0.253 µM): 0.766
relative viability (NCI-H1755; first compound 0.8 µM): 0.736
relative viability (NCI-H1755; first compound 2.53 µM): 0.761
relative viability (NCI-H1755; first compound 8 µM): 0.712
relative viability (NCI-H1944; first compound 0.08 µM): 0.396
relative viability (NCI-H1944; first compound 2.53 µM): 0.346
relative viability (NCI-H1944; first compound 8 µM): 0.409
relative viability (NCI-H1975; first compound 0.08 µM): 0.273
relative viability (NCI-H1975; first compound 0.253 µM): 0.405
relative viability (NCI-H1975; first compound 0.8 µM): 0.363
relative viability (NCI-H1975; first compound 2.53 µM): 0.353
relative viability (NCI-H1975; first compound 8 µM): 0.227
relative viability (NCI-H1993; first compound 0.08 µM): 0.561
relative viability (NCI-H1993; first compound 0.253 µM): 0.495
relative viability (NCI-H1993; first compound 0.8 µM): 0.596
relative viability (NCI-H1993; first compound 2.53 µM): 0.484
relative viability (NCI-H1993; first compound 8 µM): 0.553
relative viability (NCI-H3122; first compound 0.08 µM): 0.239
relative viability (NCI-H3122; first compound 0.253 µM): 0.227
relative viability (NCI-H3122; first compound 0.8 µM): 0.216
relative viability (NCI-H3122; first compound 2.53 µM): 0.252
relative viability (NCI-H3122; first compound 8 µM): 0.188
relative viability (NCI-H596; first compound 0.08 µM): 0.83
relative viability (NCI-H596; first compound 0.253 µM): 0.763
relative viability (NCI-H596; first compound 0.8 µM): 0.738
relative viability (NCI-H596; first compound 2.53 µM): 0.736
relative viability (NCI-H596; first compound 8 µM): 0.772
relative viability (RERF-LC-KJ; first compound 0.08 µM): 0.851
relative viability (RERF-LC-KJ; first compound 0.253 µM): 0.778
relative viability (RERF-LC-KJ; first compound 0.8 µM): 0.742
relative viability (RERF-LC-KJ; first compound 2.53 µM): 0.764
relative viability (RERF-LC-KJ; first compound 8 µM): 0.609
relative viability (SK-LU-1; first compound 0.08 µM): 0.463
relative viability (SK-LU-1; first compound 0.253 µM): 0.472
relative viability (SK-LU-1; first compound 0.8 µM): 0.455
relative viability (SK-LU-1; first compound 2.53 µM): 0.404
relative viability (SK-LU-1; first compound 8 µM): 0.352
